Measured values published in US20020156115A1, “Insecticidal and acaricidal composition, and methods of using the same” (AGRO-KANESHO CO., LTD., priority 1999, published 2002).

What was measured:
Format in all cases: in vivo
[1] = tested on: two-spotted red spiders (Tetranychus telarius); experiment: Acaricidal effect on two-spotted red spiders, imago-killing rate, 500 ppm leaf immersion; conditions: female imagoes on green bean leaf, leaf immersion about 5 seconds, concentration 500 ppm, fifth day after treatment, 25° C.
Method: (§1) Acaricidal Effect on Larvae of Two-Spotted Red Spiders (Tetranychus telarius): A stem of green bean seedling having only one primary left was placed in a test tube (capacity: 50 ml) containing water. 15 female imagoes of two-spotted red spiders were put on each leaf. One day after, the leaf having the two-spotted red spiders was immersed (about 5 seconds) in the present insecticide diluted with water, which had been prepared according to the Preparation Example, (concentration: 500 ppm, repetition: twice). They were kept in a constant-temperature room at 25° C. On the fifth day after the treatment, the female imagoes on the leaf of the green bean seedling were observed. The imago-killing rate (%) was determined on the basis of the results of the observation to obtain the results shown in Table 6.

[2] = tested on: eggs of two-spotted red spiders (Tetranychus telarius); experiment: Acaricidal effect on eggs of two-spotted red spiders, ovicidal rate, 500 ppm spray; conditions: eggs on green bean leaf disc; spray 3.5 ml; concentration 500 ppm; 8 days after treatment
Method: Acaricidal Effect on Eggs of Two-Spotted Red Spiders (Tetranychus telarius) 5 female imagoes of two-spotted red spiders were released on a green been leaf disc (diameter: 3 cm). Then, the imagoes were left to lay eggs on the leaf disc for 20 hours and then removed therefrom. The present acaricide which had been prepared according to Preparation Example 1 was diluted with water to a predetermined concentration. 3.5 ml of the preparation thus obtained was sprayed with a rotary spraying column (Mizuho Rika) over the disc (concentration: 500 ppm, repetition: twice). 8 days after the treatment, the number of unhatched eggs was counted to determine the ovicidal rate (%).

[3] = tested on: two-spotted red spiders (Tetranychus telarius); experiment: Acaricidal effect of a low concentration (12.5 ppm) on two-spotted red spiders; conditions: leaf immersion, female imagoes, fifth day after treatment, 25° C.
Method: as §1, with “A” for “Acaricidal Effect on Larvae of Two-Spotted Red Spiders (Tetranychus telarius): A”
Acaricidal Effect of a Low Concentration of Acaricide on Larvae of Two-Spotted Red Spiders (Tetranychus telarius)
The same tests as those of Test Example 2 were repeated except that the concentration of the acaricide was changed to 12.5 ppm.

SMILES	Acaricidal rate (%) [1] [%]	Ovicidal rate (%) [2] [%]	acaricidal effect [3] [%]
CO/C=C(/C(=O)OC)c1c(OCc2cnc(OC(C)C(F)(F)F)s2)c(C)nn1C (racemic) [Table 2-19]	100	100	
CO/C=C(/C(=O)OC)c1c(C#Cc2cc(Cl)cc(Cl)c2)c(C)nn1C [Table 1-6]	100	100	100
CO/C=C(/C(=O)OC)c1c(C#Cc2cc(C)cc(C)c2)c(C)nn1C [Table 1-9]	96	80	
CCCc1nn(C)c(/C(=C\OC)C(=O)OC)c1C#Cc1cc(C(F)(F)F)cc(C(F)(F)F)c1 [Table 1-15]	100	100	100
CCCc1nn(C)c(/C(=C/OC)C(=O)OC)c1C#Cc1cc(C(F)(F)F)cc(C(F)(F)F)c1 [Table 1-16]	100	100	100
CO/C=C(/C(=O)OC)c1c(C#Cc2cc(C(F)(F)F)cc(C(F)(F)F)c2)c(C(C)(C)C)nn1C [Table 1-18]	100	100	100
CO/C=C(/C(=O)OC)c1c(C#Cc2cc(C(F)(F)F)cc(C(F)(F)F)c2)c(-c2ccccc2)nn1C [Table 1-19]	100	100	100
COC=C(C(=O)OC)c1c(C#Cc2cc(C(F)(F)F)cc(C(F)(F)F)c2)c(C(F)(F)F)nn1C [Table 1-20, Methyl α-[1-methyl-3-trifluoromethyl-4{3,5-bis(trifluoromethyl)phenylethynyl}-5-pyrazole]-β-methoxyacrylate]	100	100	100
CO/C=C(/C(=O)OC)c1c(C#Cc2cc(C(F)(F)F)cc(C(F)(F)F)c2)c(-c2ccc(C(F)(F)F)cc2)nn1C [Table 1-36]			100
CO/C=C(/C(=O)OC)c1c(OCc2ccc(Oc3ccc(C(F)(F)F)cc3)cc2)c(C)nn1C [Table 2-2]	100	100	
CO/C=C(/C(=O)OC)c1c(OCc2cccc(Oc3cccc(C(F)(F)F)c3)c2)c(C)nn1C [Table 2-6]	100	100	
CO/C=C(/C(=O)OC)c1c(OCc2ccc(F)c(Oc3ccccc3)c2)c(C)nn1C [Table 2-7]	100	100	
CO/C=C(/C(=O)OC)c1c(OCc2cccc(Oc3ccc(Cl)cc3)c2)c(C)nn1C [Table 2-9]	100	100	
CO/C=C(/C(=O)OC)c1c(OCc2ccc(Oc3ccc(Cl)c(Cl)c3)cc2)c(C)nn1C [Table 2-10]	100	100	
CO/C=C(/C(=O)OC)c1c(OCc2cccc(Oc3ccc(C(F)(F)F)cc3Cl)c2)c(C)nn1C [Table 2-11]	100	100	
CO/C=C(/C(=O)OC)c1c(OCc2cccc(Oc3ccc(C)cc3)c2)c(C)nn1C [Table 2-12]	100	100	
CO/C=C(/C(=O)OC)c1c(OCc2ccc(Oc3ncc(C(F)(F)F)cc3Cl)cc2)c(C)nn1C [Table 2-13]	100	100	
CO/C=C(/C(=O)OC)c1c(OCc2sc(Oc3ccc(C(F)(F)F)cc3)nc2C)c(C)nn1C [Table 2-14]	100	100	
CO/C=C(/C(=O)OC)c1c(OCc2cc(C(C)(C)C)ccc2C)c(C)nn1C [Table 2-15]	100	100	
CO/C=C(/C(=O)OC)c1c(OCc2ccc(Cl)c(Cl)c2)c(C)nn1C [Table 2-16]	96	80	
COC=C(C(=O)OC)c1c(OCc2ccc(Cl)cc2Cl)c(C)nn1C [Table 2-18]	100	100	

SMILES	Acaricidal rate (%) [1] [%]	Ovicidal rate (%) [2] [%]	acaricidal effect [3] [%]
CO/C=C(/C(=O)OC)c1c(OCc2cccc(Oc3ccc(Cl)c(Cl)c3)c2)c(C)nn1C [Table 2-20]	100	100	
CO/C=C(/C(=O)OC)c1c(OCc2cccc(Oc3ccc(F)cc3)c2)c(C)nn1C [Table 2-21]	100	100	
CO/C=C(/C(=O)OC)c1c(OCc2cc(Cl)ccc2Cl)c(C)nn1C [Table 2-22]	100	100	
CO/C=C(/C(=O)OC)c1c(OCc2ccccc2C(F)(F)F)c(C)nn1C [Table 2-23]	100	100	
CO/C=C(/C(=O)OC)c1c(OCc2ccc(F)cc2C(F)(F)F)c(C)nn1C [Table 2-24]	100	100	
CO/C=C(/C(=O)OC)c1c(OCc2cc(C(F)(F)F)ccc2C(F)(F)F)c(C)nn1C [Table 2-25]	100	100	
CO/C=C(/C(=O)OC)c1c(OCc2ccc(OC(F)(F)F)cc2)c(C(F)(F)F)nn1C [Table 2-29]	100	100	
CO/C=C(/C(=O)OC)c1c(OCc2ccc(OC(F)F)cc2)c(C(F)(F)F)nn1C [Table 2-30]	100	100	
CCc1nn(CC)c(/C(=C\OC)C(=O)OC)c1OCc1nc(OC(C)C)cc(C(F)(F)F)n1 [Table 2-32]	100	100	
CCc1nn(CC)c(/C(=C\OC)C(=O)OC)c1OCc1nc(Cl)cc(C(F)(F)F)n1 [Table 2-33]	100	100	
CO/C=C(/C(=O)OC)c1c(COc2ccc(C(F)(F)F)cc2)c(C)nn1C [Table 3-61]	100	100	
CO/C=C(/C(=O)OC)c1c(COc2ccc(OC(F)(F)F)cc2)c(C)nn1C [Table 3-63]	100	100	
CO/C=C(/C(=O)OC)c1c(CSc2ccc(C(F)(F)F)cc2)c(C)nn1C [Table 3-66]	100	100	
CCc1nn(C)c(/C(=N\OC)C(=O)NC)c1CON=C(C)c1ccc(OC(F)(F)F)cc1 [Table 3-75]	100	100	
CO/N=C(/C(=O)OC)c1c(CON=C(C)c2ccc(C(F)(F)F)cc2)c(C)nn1C [Table 3-90]	100	100	
CNC(=O)C(=NOC)c1c(CON=C(C)c2ccc(C(F)(F)F)cc2)c(C)nn1C [Table 3-92]	100	100	
CO/C=C(/C(=O)OC)c1c(CON=C(C)c2cccc(OC(F)F)c2)c(C)nn1C [Table 3-102]	100	100	
C#CCN(C(=O)OC)c1c(OCc2ccccc2)c(C)nn1C [Table 4-23]	100	100	
C#CCN(C(=O)OC)c1c(OCc2cc(Cl)ccc2Cl)c(C)nn1C [Table 4-40]	100	100	
C#CCN(C(=O)OC)c1c(OCc2cccc(OCc3ccccc3)c2)c(C)nn1C [Table 4-85]	100	100	
